According to the supplement of paper PMC10307832:

What was measured:
Assay in all cases: relative viability (nuclei count vs DMSO), 5 days (fraction); higher = more cells survive
201T = test system: 201T
How it was run: (§1)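 Relative viability is defined as nuclei in treated wells over nuclei in vehicle wells. Duplicate plates were run and medians reported. Lung cancer cell lines in 1536-well plates were dosed by pin tool one day after seeding, with one drug or with a fixed anchor-drug dose plus five library-drug doses (not always all listed) in √10 steps, and nuclei were counted after 5 days.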

NCI-H1650 = test system: NCI-H1650
How it was run: as §1

BEN = test system: BEN
How it was run: as §1

NCI-H2009 = test system: NCI-H2009
How it was run: as §1

NCI-H1437 = test system: NCI-H1437
How it was run: as §1

ABC-1 = test system: ABC-1
How it was run: as §1

HCC-366 = test system: HCC-366
How it was run: as §1

CAL-12T = test system: CAL-12T
How it was run: as §1

NCI-H3122 = test system: NCI-H3122
How it was run: as §1

NCI-H661 = test system: NCI-H661
How it was run: as §1

PC-14 = test system: PC-14
How it was run: as §1

HARA = test system: HARA
How it was run: as §1

NCI-H727 = test system: NCI-H727
How it was run: as §1

EKVX = test system: EKVX
How it was run: as §1

NCI-H441 = test system: NCI-H441
How it was run: as §1

COR-L23 = test system: COR-L23
How it was run: as §1

LU99A = test system: LU99A
How it was run: as §1

NCI-H2170 = test system: NCI-H2170
How it was run: as §1

NCI-H838 = test system: NCI-H838
How it was run: as §1

NCI-H1666 = test system: NCI-H1666
How it was run: as §1

COR-L 105 = test system: COR-L 105
How it was run: as §1

LK-2 = test system: LK-2
How it was run: as §1

O=C(O)c1ccc(-c2c[nH]c3ncc(-c4ccccc4)cc23)cc1C1CCCC1 + CS(=O)(=O)N1CCN(Cc2cc3nc(-c4cccc5[nH]ncc45)nc(N4CCOCC4)c3s2)CC1 [Pictilisib] (partner 1 µM)
relative viability (201T; first compound 0.04 µM): 0.695
relative viability (201T; first compound 0.1265 µM): 0.619
relative viability (201T; first compound 0.4 µM): 0.608
relative viability (201T; first compound 1.265 µM): 0.656
relative viability (NCI-H1650; first compound 0.04 µM): 0.585
relative viability (NCI-H1650; first compound 0.1265 µM): 0.585
relative viability (NCI-H1650; first compound 0.4 µM): 0.556
relative viability (NCI-H1650; first compound 1.265 µM): 0.381
relative viability (BEN; first compound 0.04 µM): 0.546
relative viability (BEN; first compound 0.1265 µM): 0.609
relative viability (BEN; first compound 0.4 µM): 0.584
relative viability (BEN; first compound 1.265 µM): 0.555
relative viability (NCI-H2009; first compound 0.04 µM): 0.793
relative viability (NCI-H2009; first compound 0.1265 µM): 0.836
relative viability (NCI-H2009; first compound 0.4 µM): 0.788
relative viability (NCI-H2009; first compound 1.265 µM): 0.586
relative viability (NCI-H1437; first compound 0.04 µM): 0.489
relative viability (NCI-H1437; first compound 0.1265 µM): 0.446
relative viability (NCI-H1437; first compound 0.4 µM): 0.371
relative viability (NCI-H1437; first compound 1.265 µM): 0.263
relative viability (ABC-1; first compound 0.04 µM): 0.673
relative viability (ABC-1; first compound 0.1265 µM): 0.596
relative viability (ABC-1; first compound 0.4 µM): 0.689
relative viability (ABC-1; first compound 1.265 µM): 0.757
relative viability (HCC-366; first compound 0.04 µM): 0.136
relative viability (HCC-366; first compound 0.1265 µM): 0.192
relative viability (HCC-366; first compound 0.4 µM): 0.138
relative viability (HCC-366; first compound 1.265 µM): 0.153
relative viability (CAL-12T; first compound 0.04 µM): 0.478
relative viability (CAL-12T; first compound 0.1265 µM): 0.696
relative viability (CAL-12T; first compound 0.4 µM): 0.494
relative viability (CAL-12T; first compound 1.265 µM): 0.448
relative viability (NCI-H3122; first compound 0.04 µM): 0.565
relative viability (NCI-H3122; first compound 0.1265 µM): 0.683
relative viability (NCI-H3122; first compound 0.4 µM): 0.619
relative viability (NCI-H3122; first compound 1.265 µM): 0.574
relative viability (NCI-H661; first compound 0.1265 µM): 0.464
relative viability (NCI-H661; first compound 0.4 µM): 0.508
relative viability (NCI-H661; first compound 1.265 µM): 0.424
relative viability (PC-14; first compound 0.04 µM): 0.765
relative viability (PC-14; first compound 0.1265 µM): 0.947
relative viability (PC-14; first compound 0.4 µM): 0.713
relative viability (PC-14; first compound 1.265 µM): 0.801
relative viability (HARA; first compound 0.04 µM): 0.31
relative viability (HARA; first compound 0.1265 µM): 0.604
relative viability (HARA; first compound 0.4 µM): 0.449
relative viability (HARA; first compound 1.265 µM): 0.545
relative viability (NCI-H727; first compound 0.04 µM): 0.363
relative viability (NCI-H727; first compound 0.1265 µM): 0.403
relative viability (NCI-H727; first compound 0.4 µM): 0.654
relative viability (NCI-H727; first compound 1.265 µM): 0.354
relative viability (EKVX; first compound 0.04 µM): 0.462
relative viability (EKVX; first compound 0.1265 µM): 0.524
relative viability (EKVX; first compound 0.4 µM): 0.468
relative viability (EKVX; first compound 1.265 µM): 0.374
relative viability (NCI-H441; first compound 0.04 µM): 0.489
relative viability (NCI-H441; first compound 0.1265 µM): 0.517
relative viability (NCI-H441; first compound 0.4 µM): 0.469
relative viability (NCI-H441; first compound 1.265 µM): 0.338
relative viability (COR-L23; first compound 0.04 µM): 0.775
relative viability (COR-L23; first compound 0.1265 µM): 0.9
relative viability (COR-L23; first compound 0.4 µM): 0.798
relative viability (COR-L23; first compound 1.265 µM): 0.425
relative viability (LU99A; first compound 0.04 µM): 0.321
relative viability (LU99A; first compound 0.1265 µM): 0.315
relative viability (LU99A; first compound 0.4 µM): 0.308
relative viability (LU99A; first compound 1.265 µM): 0.278
relative viability (NCI-H2170; first compound 0.04 µM): 0.386
relative viability (NCI-H2170; first compound 0.1265 µM): 0.326
relative viability (NCI-H2170; first compound 0.4 µM): 0.294
relative viability (NCI-H2170; first compound 1.265 µM): 0.211
relative viability (NCI-H838; first compound 0.04 µM): 0.423
relative viability (NCI-H838; first compound 0.1265 µM): 0.57
relative viability (NCI-H838; first compound 0.4 µM): 0.506
relative viability (NCI-H838; first compound 1.265 µM): 0.447
relative viability (NCI-H1666; first compound 0.04 µM): 0.406
relative viability (NCI-H1666; first compound 0.1265 µM): 0.439
relative viability (NCI-H1666; first compound 0.4 µM): 0.451
relative viability (NCI-H1666; first compound 1.265 µM): 0.251
relative viability (COR-L 105; first compound 0.04 µM): 0.435
relative viability (COR-L 105; first compound 0.1265 µM): 0.429
relative viability (COR-L 105; first compound 0.4 µM): 0.497
relative viability (COR-L 105; first compound 1.265 µM): 0.388
relative viability (LK-2; first compound 0.04 µM): 0.754
relative viability (LK-2; first compound 0.1265 µM): 0.507
relative viability (LK-2; first compound 0.4 µM): 0.611
relative viability (LK-2; first compound 1.265 µM): 0.592
